These results are taken from PMC4979471 (Cell Death Discovery, 2015).

What all share (test): Kinase selectivity, P33-radiolabeled assay
Format in all cases: biochemical
Settings in all cases: 10 μM ATP

Assay [1] deals with T1, ITK (Homo sapiens, UniProt Q08881).
T1 construct: purchased Reaction Biology Corp
T1 sequence (Q08881 1-620): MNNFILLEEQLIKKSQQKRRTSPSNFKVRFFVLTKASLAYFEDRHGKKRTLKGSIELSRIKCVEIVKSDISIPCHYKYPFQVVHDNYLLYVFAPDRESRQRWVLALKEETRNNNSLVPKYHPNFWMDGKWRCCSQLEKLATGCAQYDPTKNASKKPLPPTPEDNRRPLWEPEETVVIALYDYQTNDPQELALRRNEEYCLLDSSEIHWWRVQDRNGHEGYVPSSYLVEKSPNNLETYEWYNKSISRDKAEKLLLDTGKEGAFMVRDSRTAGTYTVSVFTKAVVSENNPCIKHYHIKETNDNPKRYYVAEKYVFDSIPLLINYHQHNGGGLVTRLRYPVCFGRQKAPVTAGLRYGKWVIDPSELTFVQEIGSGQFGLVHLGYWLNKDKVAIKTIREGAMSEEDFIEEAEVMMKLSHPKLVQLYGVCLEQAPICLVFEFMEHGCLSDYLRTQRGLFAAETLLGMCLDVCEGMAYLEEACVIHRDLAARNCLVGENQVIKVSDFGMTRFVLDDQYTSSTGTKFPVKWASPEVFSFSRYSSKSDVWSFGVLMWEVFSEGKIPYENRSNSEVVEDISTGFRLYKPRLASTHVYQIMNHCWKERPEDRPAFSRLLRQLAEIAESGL
A digest of the protocol:
(§1)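 Percent residual kinase activity versus DMSO is reported. Conditions: compound at 10 μM, ATP at 10 μM, n = 2.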

The target in assay [2] is T2, MRCKb/CDC42BPB (Homo sapiens, UniProt Q9Y5S2).
T2 construct: purchased Reaction Biology Corp
T2 sequence (Q9Y5S2 whole entry): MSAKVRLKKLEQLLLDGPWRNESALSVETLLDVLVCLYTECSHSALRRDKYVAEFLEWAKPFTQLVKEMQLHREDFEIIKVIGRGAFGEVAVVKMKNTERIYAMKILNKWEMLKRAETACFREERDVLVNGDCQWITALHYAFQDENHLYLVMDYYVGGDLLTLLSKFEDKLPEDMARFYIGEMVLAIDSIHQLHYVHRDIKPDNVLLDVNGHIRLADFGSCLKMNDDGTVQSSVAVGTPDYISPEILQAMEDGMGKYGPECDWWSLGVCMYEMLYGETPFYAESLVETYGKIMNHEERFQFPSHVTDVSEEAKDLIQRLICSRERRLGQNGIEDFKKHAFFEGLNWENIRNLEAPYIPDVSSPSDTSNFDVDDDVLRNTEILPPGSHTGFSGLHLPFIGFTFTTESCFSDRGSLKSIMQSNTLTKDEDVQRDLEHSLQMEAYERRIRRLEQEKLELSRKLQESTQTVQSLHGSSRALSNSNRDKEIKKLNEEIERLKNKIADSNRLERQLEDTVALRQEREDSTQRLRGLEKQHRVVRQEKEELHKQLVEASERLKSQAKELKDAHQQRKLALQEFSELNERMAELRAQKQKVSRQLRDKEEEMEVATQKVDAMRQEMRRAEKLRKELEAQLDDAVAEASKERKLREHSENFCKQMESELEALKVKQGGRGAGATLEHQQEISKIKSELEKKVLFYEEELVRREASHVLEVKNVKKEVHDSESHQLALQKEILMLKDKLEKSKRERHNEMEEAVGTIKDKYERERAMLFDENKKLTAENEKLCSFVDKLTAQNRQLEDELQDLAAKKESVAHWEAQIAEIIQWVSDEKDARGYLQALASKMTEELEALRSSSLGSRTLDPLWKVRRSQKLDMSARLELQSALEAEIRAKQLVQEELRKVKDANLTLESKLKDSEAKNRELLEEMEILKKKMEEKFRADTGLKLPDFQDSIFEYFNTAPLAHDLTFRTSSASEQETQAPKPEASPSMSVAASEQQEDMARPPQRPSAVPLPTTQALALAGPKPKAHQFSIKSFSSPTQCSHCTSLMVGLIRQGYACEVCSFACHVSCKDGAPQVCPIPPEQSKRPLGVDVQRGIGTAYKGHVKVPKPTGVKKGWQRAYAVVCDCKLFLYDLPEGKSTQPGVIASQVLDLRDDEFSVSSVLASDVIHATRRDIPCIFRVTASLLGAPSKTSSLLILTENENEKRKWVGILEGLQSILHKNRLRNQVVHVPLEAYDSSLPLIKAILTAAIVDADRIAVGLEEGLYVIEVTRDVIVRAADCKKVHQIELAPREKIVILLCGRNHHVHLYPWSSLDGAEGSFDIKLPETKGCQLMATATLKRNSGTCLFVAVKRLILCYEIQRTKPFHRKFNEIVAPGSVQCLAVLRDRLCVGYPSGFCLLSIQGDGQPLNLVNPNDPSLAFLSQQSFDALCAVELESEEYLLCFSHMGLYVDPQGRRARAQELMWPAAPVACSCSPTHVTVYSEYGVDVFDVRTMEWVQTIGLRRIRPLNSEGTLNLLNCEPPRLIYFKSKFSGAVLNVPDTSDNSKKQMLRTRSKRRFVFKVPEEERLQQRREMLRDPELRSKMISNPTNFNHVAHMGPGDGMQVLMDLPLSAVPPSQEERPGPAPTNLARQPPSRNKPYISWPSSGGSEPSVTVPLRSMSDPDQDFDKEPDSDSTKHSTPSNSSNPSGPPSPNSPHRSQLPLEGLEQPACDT
A digest of the protocol:
as §1

Assay [3] deals with T3, CAMKK1 (Homo sapiens, UniProt Q8N5S9).
T3 construct: purchased Reaction Biology Corp
T3 sequence (Q8N5S9 whole entry): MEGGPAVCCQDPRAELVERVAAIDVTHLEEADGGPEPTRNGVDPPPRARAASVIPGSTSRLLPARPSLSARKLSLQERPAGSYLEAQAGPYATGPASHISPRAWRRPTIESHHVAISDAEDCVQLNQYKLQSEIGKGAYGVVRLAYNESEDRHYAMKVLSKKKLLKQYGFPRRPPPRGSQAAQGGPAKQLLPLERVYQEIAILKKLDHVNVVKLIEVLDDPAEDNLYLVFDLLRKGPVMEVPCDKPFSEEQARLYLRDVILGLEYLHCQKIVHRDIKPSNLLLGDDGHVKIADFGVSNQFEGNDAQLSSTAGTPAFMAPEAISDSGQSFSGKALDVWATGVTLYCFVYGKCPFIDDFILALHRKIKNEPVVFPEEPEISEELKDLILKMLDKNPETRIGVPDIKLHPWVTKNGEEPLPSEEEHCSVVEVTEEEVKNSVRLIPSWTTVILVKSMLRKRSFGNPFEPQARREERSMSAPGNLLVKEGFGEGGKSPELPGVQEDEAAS
A digest of the protocol: as §1

The target in assay [4] is T4, ULK2 (Homo sapiens, UniProt Q8IYT8).
T4 construct: purchased Reaction Biology Corp
T4 sequence (Q8IYT8 1-1036): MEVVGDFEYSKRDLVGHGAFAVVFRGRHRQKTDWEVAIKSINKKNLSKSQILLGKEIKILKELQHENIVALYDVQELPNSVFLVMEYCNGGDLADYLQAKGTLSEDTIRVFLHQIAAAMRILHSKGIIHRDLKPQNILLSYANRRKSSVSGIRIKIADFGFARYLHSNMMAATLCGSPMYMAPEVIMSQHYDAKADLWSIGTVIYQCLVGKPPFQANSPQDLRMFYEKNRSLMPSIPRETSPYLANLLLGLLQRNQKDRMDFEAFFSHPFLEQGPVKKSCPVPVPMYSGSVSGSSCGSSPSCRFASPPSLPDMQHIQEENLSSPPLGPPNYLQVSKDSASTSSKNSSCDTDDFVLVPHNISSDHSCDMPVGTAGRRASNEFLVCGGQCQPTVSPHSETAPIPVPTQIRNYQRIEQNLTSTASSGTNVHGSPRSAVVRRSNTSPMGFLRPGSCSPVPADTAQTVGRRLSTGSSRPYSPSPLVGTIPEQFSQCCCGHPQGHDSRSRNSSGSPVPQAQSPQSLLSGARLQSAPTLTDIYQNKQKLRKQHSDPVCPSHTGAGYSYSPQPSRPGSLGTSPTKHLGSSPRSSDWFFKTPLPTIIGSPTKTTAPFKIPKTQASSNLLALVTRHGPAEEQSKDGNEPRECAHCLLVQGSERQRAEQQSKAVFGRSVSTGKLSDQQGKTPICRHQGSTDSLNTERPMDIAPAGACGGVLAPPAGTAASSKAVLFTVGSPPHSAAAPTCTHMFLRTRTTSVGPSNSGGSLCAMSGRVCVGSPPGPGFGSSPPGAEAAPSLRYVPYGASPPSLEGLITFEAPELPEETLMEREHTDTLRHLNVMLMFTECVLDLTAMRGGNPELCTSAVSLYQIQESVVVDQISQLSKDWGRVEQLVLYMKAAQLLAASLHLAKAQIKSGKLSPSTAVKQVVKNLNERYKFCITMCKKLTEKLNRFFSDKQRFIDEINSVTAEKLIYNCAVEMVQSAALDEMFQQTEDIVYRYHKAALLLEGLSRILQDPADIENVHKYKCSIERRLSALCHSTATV
A digest of the protocol:
as §1

Assay [5] has as its target T5, TAOK1 (Homo sapiens, UniProt Q7L7X3).
T5 construct: purchased Reaction Biology Corp
T5 sequence (Q7L7X3 1-1001): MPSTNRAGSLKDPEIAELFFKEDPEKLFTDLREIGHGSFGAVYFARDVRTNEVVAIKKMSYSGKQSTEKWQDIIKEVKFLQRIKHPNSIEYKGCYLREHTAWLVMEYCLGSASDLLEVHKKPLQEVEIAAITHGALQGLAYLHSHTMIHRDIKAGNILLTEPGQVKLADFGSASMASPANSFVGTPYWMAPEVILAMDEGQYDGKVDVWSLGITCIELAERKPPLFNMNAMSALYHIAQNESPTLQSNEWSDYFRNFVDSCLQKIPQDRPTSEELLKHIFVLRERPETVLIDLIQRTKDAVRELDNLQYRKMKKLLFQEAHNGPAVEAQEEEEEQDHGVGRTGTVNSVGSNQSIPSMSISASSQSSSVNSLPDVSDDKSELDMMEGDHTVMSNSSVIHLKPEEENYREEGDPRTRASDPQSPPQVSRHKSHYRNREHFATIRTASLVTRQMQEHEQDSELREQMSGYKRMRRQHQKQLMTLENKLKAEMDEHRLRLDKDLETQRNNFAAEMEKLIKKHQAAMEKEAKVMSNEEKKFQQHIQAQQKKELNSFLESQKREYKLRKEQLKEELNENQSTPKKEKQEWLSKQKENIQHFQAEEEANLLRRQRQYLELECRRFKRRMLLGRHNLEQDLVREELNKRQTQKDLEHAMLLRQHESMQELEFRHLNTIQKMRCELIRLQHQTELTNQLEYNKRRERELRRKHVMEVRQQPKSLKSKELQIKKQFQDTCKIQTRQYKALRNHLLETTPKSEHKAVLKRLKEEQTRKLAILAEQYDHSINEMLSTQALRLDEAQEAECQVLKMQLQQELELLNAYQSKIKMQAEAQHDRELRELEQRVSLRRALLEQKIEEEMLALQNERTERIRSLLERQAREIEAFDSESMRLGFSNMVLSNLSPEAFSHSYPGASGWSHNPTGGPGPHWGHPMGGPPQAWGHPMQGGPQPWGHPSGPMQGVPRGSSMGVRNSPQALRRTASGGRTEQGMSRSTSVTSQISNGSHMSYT
A digest of the protocol: as §1

[6] abbreviates: read-out: % Enzyme Activity (relative to DMSO controls) AVG.
The mark [7] stands for this setting: read-out: % Enzyme Activity (relative to DMSO controls) Data 1.
The mark [8] stands for this setting: read-out: % Enzyme Activity (relative to DMSO controls) Data 2.

Like-named read-outs stand apart in the source and are kept apart here.

In the case of `CC(C)(C)C(=O)N1N=CC[C@H]1c1ccccc1` [GSK′963], the remaining activity at 10 µM in assay [1] (setting [6]) is 102%; in assay [1] (setting [7]), 95.2%; in assay [1] (setting [8]), 108%; in assay [2] (setting [6]) it was 106%; in assay [2] (setting [7]), 109%; in assay [2] (setting [8]), 102%. Besides, the remaining activity at 10 µM in assay [3] (setting [6]) stood at 103%; in assay [3] (setting [7]), 105%; in assay [3] (setting [8]), 101%; in assay [4] (setting [6]), 99.7%; in assay [4] (setting [7]) it was 99.8%; in assay [4] (setting [8]) it was 99.5%. The remaining activity at 10 µM in assay [5] (setting [6]) stood at 99.3%; in assay [5] (setting [7]), 101%; in assay [5] (setting [8]) it was 97.8%.
